Assay results published in US5488049A, “Method of treating learning and memory disorders using benzothiadiazide derivatives as nootropic agents” (FIDIA - Georgetown Institute for the Neuro-Sciences, priority 1993, dated 1996).
“Also recorded” adds a separate entry of the source. Where two headings read alike, the source gives them in different places.

What was measured:
[1] = system: animals and humans; conditions: refs 1-3 (NMDA antagonists); refs 7-9 (aniracetam); cited from earlier work
[2] = system: AMPA receptor; assay: Fast application with double barrel pipette: AMPA receptor desensitization in outside-out patches from CAl hippocampal pyramidal neurons; format: cell-based, rat; conditions: 5 μM; 1 mM glutamate with 5 μM MK-801
Description: (§1) Young rats (12-16 days old) were decapitated and the brains quickly removed and placed in ice-cold Ringer solution. Thin slices of hippocampus (250 μm) were then cut with a vibratome slicer (Lancer, St. Louis, Mo.) and kept in Ringer solution at 37° C. until use. The experiments were carried out at room temperature with the slice totally submerged in a 1 ml volume recording chamber and under continuous perfusion with Ringer solution at a rate of 6 ml/min using an upright Hoffman modulation contrast microscope (Carl Zeiss, Germany) equipped with a 40×water immersion objective.
(§2) Media and drug application. The external Ringer solution contained (in mM): NaCl 120; KCl 3.1; CaCl2 2; MgCl2 1; KH2 PO4 1; NaHCO3 26; glucose 2.7; and it was continuously bubbled with 95% O2 and 5% CO2. Patch pipettes were filled with a solution containing (in mM): K-gluconate 140; MgCl2 1; ATP.Mg 2; EGTA 0.5; HEPES-KOH 10, pH 7.2. All the drugs under investigation were applied through the recording chamber perfusion system via parallel inputs having a common entry into the chamber. Agonist application was attained using two different systems that allowed a slow or a rapid solution change. Slow solution changes were used during recordings in whole-cell configuration and were obtained by exchanging the solution of the recording chamber within a few seconds. Fast solution changes were obtained with the use of the Y-shaped tubing method that allows complete exchange of solution in less than 10 ms, and is described in detail by Murase et al. (1989).
Briefly, a polyethylene tubing (1 mm i.d.) is bent in a U-shaped, and another fine polyethylene tubing (50 μi.d.) and 10 mm length) is inserted into a small hole in the U-tubing making the tip of the Y-tubing. Solutions are fed to the Y-tubing by gravity, and negative pressure facilitates exchange of the solution. The tip of the Y-tubing is positioned 100 μm from the cell investigated, and upon opening and closing of a valve that controls the negative pressure, it was possible to respectively change rapidly and apply a number of different test solutions. This method was used to apply agonists to excised outside-out membrane patches. More rapid drug applications were used to apply agonists to excised outside-out membrane patches, and were obtained through a double-barrelled pipette positioned close to the recording pipette containing the membrane patch. […] The agonist was applied for a period of 150 ms and the time necessary for a complete exchange of the solution was less than 1 ms as measured at the opening of a patch pipette containing different dilutions of the drugs under study. […]
Ionic currents in whole-cell configuration and outside-out excised membrane patches were monitored using the patch clamp technique (15). […]

[3] = system: AMPA receptors located on CAl pyramidal neuronal membranes; assay: Slow bath perfusion, whole-cell: potentiation of glutamate-elicited current (with MK-801) in CAl pyramidal neurons of hippocampal slices; format: cell-based, rat
Description: as §1, §2
IDRA compounds (see above for structures) were first dissolved in 50 μl of DMSO, then […] of 1N NaOH and water (sufficient to reach a volume of 1 ml and a concentration of 10 mM). The final concentration was reached diluting the stock solution with Ringer solution.
(§3) Ionic currents in whole-cell configuration and outside-out excised membrane patches were monitored using the patch clamp technique (15).
The action diazoxide and the IDRA analogues were tested on the desensitization of AMPA receptors located on CAl pyramidal neuronal membranes in rat hippocampal slices. In order to evaluate whether the compounds under study increase the intensity of currents generated by the activation of non-NMDA receptors, these receptors were activated with glutamate in the presence of 5 μM MK-801 to block completely the ionic current elicited by glutamate acting on the NMDA receptor channels present in CAl pyramidal neurons. Three distinct methods of drug application were employed: 1) slow bath perfusion of agonist and drugs while recording in whole-cell mode (onset 30s); ii) fast application to outside-out patches of a fixed concentration of agonist with a double barrel pipette (onset<1 ms) in the presence and the absence of drugs; iii) fast perfusion (onset<6 ms) of increasing concentrations of agonist and drugs applied with the Y-tubing device to outside-out patches excised from neurons in brain slices and to voltage-clamped neurons in primary culture.
. The most efficacious (1 mM) derivative was IDRA21, which elicited a potentiation of 797±220% (n=4 cells), followed by IDRA 20 with a potentiation of 292±100% (n=4 cells) (FIG. 2). […]

[4] = system: kainate-activated current; assay: Selectivity: ionic current elicited by 20 μM kainate; format: cell-based, rat; conditions: for effect on kainate-activated current: 1 mM compound, 20 μM kainate; for effect on kainate responses at doses that decreased AMPA desensitization: all doses that decrease/inhibit AMPA desensitization
Description: as §1, §2, §3

[5] = system: rats; assay: Water maze: drug action on learning and retention in rats; format: in vivo, rat; conditions: IDRA 21 15 mg/kg
Description: Rats (male, 250 g) were trained once a day in maze A (See FIG. 8B forced maze) for 2 consecutive days. The day of the experiment, after a first exposure to maze A, IDRA 21 (15 mg/kg) Aniracetam (500 mg/kg) or vehicle (cont) were administered per oral gavage and 30 min later the animals were exposed once again to Maze A. After 30 min of interatrial rest, rats were exposed to Maze B (see FIG. 8C open maze).
(§4) The water maze apparatus was adapted from Kant et al., (16), and consists of three concentric squares placed inside a 5 ft plastic pool (FIG. 6). The walls of the maze are 50 cm in height and are constructed from black opaque plastic to allow for tracking of the animal with an overhead camera. The alleys between the walls are 16 cm wide. In the center of each wall there is a removable doorway. The opening of doorways allows for the construction of mazes with an increasing number of potential error possibilities. (See diagram for Maze A and Maze B, FIG. 6). The maze is located in a room 10'×15' at constant temperature (18° C.) adjacent to the vivarium. The room is illuminated with overhead lights which also serve as spatial cues. Additional spatial cues are provided by the position of the investigator and a number of small white x's placed within specific locations upon the walls of the maze. The maze is filled with water (18°)C. to a depth of 25 cm.
(§5) Seven days prior to drug studies, rats were tested in Maze A (forced maze) on two consecutive days. Pretesting with the "forced" maze enabled the assessment of the animals' general motor, sensory and motivational abilities, and facilitated the exclusion of those animals unable to meet pretesting criteria. Performance was assessed by determining either swim time, errors committed, or path length measured with a computerized recording device. Errors are defined as whole body entry into alleys not leading directly to the exit platform (i.e., shaded portions in FIG. 6). Rats were excluded from the study if their swim path length and/or number of errors were two standard deviations above the mean […] of the entire group. During the first two trials, the rats were placed into the center of the maze and given a maximum of 180 secs to find the "exit platform" located at the "finish" (FIG. 6). The time required, the number of errors, and the path length were recorded for each trial. […] Rats meeting the criteria were randomly divided into groups. On the day of the experiment, a single trial was run (Maze A) in order to establish a baseline of performance. Following drug administration, the rats were again tested once on Maze A to establish a baseline of post-treatment performance. Following an additional interatrial interval of 30 min., the rats were tested on Maze B.

[6] = system: AMPA receptor; conditions: cited from earlier work
[7] = system: rats; assay: Water maze: drug action on alprazolam-disrupted learning behavior in rats; format: in vivo, rat; conditions: for antagonism of alprazolam amnesic effect: doses equimolar to IDRA 21 / (+) IDRA 21
Description: Rats (male 250 g b.w.) were trained two days, once a day, in maze A (See insert A). […] Rats were exposed to a new maze configuration (Maze B) in 4 successive trials 15, 30, 45, and 60 min after the i.p. injections.
as §4, §5
In these experiments, rats were trained in Maze B 15, 30, 45 and 60 min. after drug injection.

[8] = system: EPSCs elicited in CAl pyramidal neurons; assay: Excitatory postsynaptic currents (EPSCs) in CAl pyramidal neurons in hippocampal slices on stimulation of Schaffer collateral afferents; format: cell-based, rat; conditions: in vitro; compared with (+) IDRA 21
Description: as §1, §3
Traces were filtered at 3 KHz (-3 dB, 8-pole, lowpass Bessel filter, Frequency Devices), and stored in an LSI 11/73 computer (INDEC System, Sunnyvale, Calif.) after digitization (10 KHz) with a Data Translation analog to digital converter. Decay time constants of EPSC and glutamate-activated currents were determined from exponential fitting with the 11/73 system by using an entirely automated least-squares procedures (see Vicini and Schuetze, 1985, for further details). This method uses a Simplex algorithm (Caceci and Cacheris, 1984) to fit the data to either a single or double exponential equation of the form I(t)=If exp(-t/tauf)+Is exp(-t/taus), where If and Is are the amplitudes of the sIPSC fast and slow components, and tauf and taus are their respective decay time constants. Peak amplitudes were measured at the absolute maximum of the currents, taking into account the noise of the baseline and noise around the peak. Rise times were measured as the time elapsed from 20 to 80% of the peak amplitude of the response.
The action of nootropic drugs on the excitatory postsynaptic currents (EPSCs) elicited in CAl pyramidal neurons in hippocampal slices was investigated by stimulation of the Schaffer collateral afferents.

[9] = system: rats; assay: Water maze: drug action on alprazolam-disrupted learning behavior in rats; format: in vivo, rat; conditions: oral 5 mg/kg

Structure (SMILES): c1ccc(C2(N3CCCCC3)CCCCC2)cc1 [phencyclidine]
- effect on learning and memory (background) [1]: produce profound alterations in learning, disrupt memory consolidation and retrieval in animals and man

Structure (SMILES): NS(=O)(=O)c1cccc2c1c([N+](=O)[O-])cc1[nH]c(=O)c(=O)[nH]c12 [NBQX, 1,2,3,4-tetrahydroxy-6-nitro-2,3-dioxo-benzo-[f]quinoxaline-7-sulfonamide, reference compound]
- block of transient peak and sustained plateau currents [2]: completely blocked

Structure (SMILES): CC1Nc2cc(Cl)ccc2S(=O)(=O)N1 (stereo not shown) [IDRA 20, 6-chloro-3-methyl-3,4-dihydro-2H 1,2,4-benzothiadiazine S-S dioxide]
- potentiation of glutamate-elicited current ([3]; 1 mM compound, 50 μM glutamate, 5 μM MK-801, whole-cell, slow perfusion): 292±100%

Structure (SMILES): COc1ccc(C(=O)N2CCCC2=O)cc1 [aniracetam]
- effect on kainate-activated current [4]: failed to potentiate the kainate-activated current
- effect on kainate responses at doses that decreased AMPA desensitization [4]: failed to affect kainate responses
- improvement of water maze performance ([5]; FIG. 8A, Aniracetam 500 mg/kg oral): improve water performance in rats
- significance (P) of water maze performance vs control ([5]; Aniracetam 500 mg/kg per oral gavage, at least 5 rats): < 0.05
- AMPA receptor desensitization / modulation (background) [6]: attenuating AMPA receptor spontaneous desensitization
- potency and duration of action (background) [6]: low potency and short lasting action
- AMPA receptor desensitization / modulation (background) ([6]; listed as Aniracetam): decreases AMPA receptor desensitization
- effect on learning and memory (background) [1]: enhancing learning and memory (nootropic action) in animals

Structure (SMILES): CNC1(c2ccccc2Cl)CCCCC1=O (stereo not shown) [ketamine]
- effect on learning and memory (background) [1]: produce profound alterations in learning, disrupt memory consolidation and retrieval in animals and man

Structure (SMILES): NS(=O)(=O)c1cc2c(cc1Cl)N=CNS2(=O)=O [chlorothiazide, reference compound]
- antagonism of alprazolam amnesic effect [7]: inactive

Structure (SMILES): C[C@]12N[C@H](Cc3ccccc31)c1ccccc12 [MK-801]
- effect on learning and memory (background) [1]: produce profound alterations in learning, disrupt memory consolidation and retrieval in animals and man

Structure (SMILES): O=S1(=O)NC(C2CC3C=CC2C3)Nc2ccc(Cl)cc21 (stereo not shown) [IDRA 23, 6-chloro-3-bicyclo[2.2.1]-hept-2-ene-3,4-dihydro-2H 1,2,4-benzothiadiazine S-S dioxide]
- efficacy compared with diazoxide (potentiation of glutamate current), in words ([3]; 1 mM, 50 μM glutamate): either equally or less efficacious than diazoxide

Structure (SMILES): CC1=NS(=O)(=O)c2cc(Cl)ccc2N1 [diazoxide, reference compound]
- effect on kainate-activated current [4]: increased the current
- effect on kainate responses at doses that decreased AMPA desensitization [4]: potently potentiated kainate responses
- efficacy in increasing excitatory synaptic strength in CAl pyramidal neurons [8]: at least as efficacious as (+) IDRA 21
- potentiation of glutamate current, in words ([3]; 100 μM): inactive
- potentiation of glutamate-elicited current ([3]; 500 μM compound, mean±SE, N=4 cells): 152±0.2%
- maximal efficacy reached, in words ([3]; 1 mM, maximal dose testable without vehicle effect): failed to reach maximal efficacy at 1 mM
- potentiation of glutamate current, dose dependence ([3]; up to 1 mM): dose-dependent potentiation
- antagonism of alprazolam amnesic effect [7]: inactive; also recorded: unable to antagonize alprazolam-induced impairment of learning behavior

Structure (SMILES): CC1Nc2ccc(Cl)cc2S(=O)(=O)N1 (single isomer, unassigned; (-)) [(-) IDRA 21]
- biological activity of enantiomers (summary) ([7]; summary statement): inactive
- prevention of alprazolam-induced amnesia (enantiomers) [9]: inactive
